ChEMBL document CHEMBL3600324, “Design, synthesis and evaluation of MCH receptor 1 antagonists--Part II: Optimization of pyridazines toward reduced phospholipidosis and hERG inhibition” (Bioorg Med Chem Lett, 2015)

Experiments:
[1] = target: 5-hydroxytryptamine receptor 2A (Homo sapiens, UniProt P28223); assay: Binding affinity to 5HT2A receptor (unknown origin)
[2] = target: Melanin-concentrating hormone receptor 1 (Homo sapiens, UniProt Q99705); assay: Displacement of [125I-MCH] from human MCH receptor 1 expressed in CHO cell membranes by scintillation counting method
Melanin-concentrating hormone receptor 1, sequence (Q99705 whole entry): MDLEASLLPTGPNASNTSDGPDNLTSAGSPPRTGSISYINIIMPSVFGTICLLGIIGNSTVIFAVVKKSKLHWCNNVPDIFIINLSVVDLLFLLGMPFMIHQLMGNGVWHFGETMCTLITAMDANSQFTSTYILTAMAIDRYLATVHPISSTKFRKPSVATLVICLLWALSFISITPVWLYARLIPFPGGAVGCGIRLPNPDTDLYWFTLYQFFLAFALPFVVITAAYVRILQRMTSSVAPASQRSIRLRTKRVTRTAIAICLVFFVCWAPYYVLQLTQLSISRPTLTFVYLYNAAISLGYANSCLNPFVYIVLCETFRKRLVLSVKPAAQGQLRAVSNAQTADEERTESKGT

[3] = target: T1, Muscarinic acetylcholine receptor M1 (Homo sapiens, UniProt P11229); assay: Binding affinity to muscarinic M1 receptor (unknown origin)
T1 sequence (P11229 whole entry): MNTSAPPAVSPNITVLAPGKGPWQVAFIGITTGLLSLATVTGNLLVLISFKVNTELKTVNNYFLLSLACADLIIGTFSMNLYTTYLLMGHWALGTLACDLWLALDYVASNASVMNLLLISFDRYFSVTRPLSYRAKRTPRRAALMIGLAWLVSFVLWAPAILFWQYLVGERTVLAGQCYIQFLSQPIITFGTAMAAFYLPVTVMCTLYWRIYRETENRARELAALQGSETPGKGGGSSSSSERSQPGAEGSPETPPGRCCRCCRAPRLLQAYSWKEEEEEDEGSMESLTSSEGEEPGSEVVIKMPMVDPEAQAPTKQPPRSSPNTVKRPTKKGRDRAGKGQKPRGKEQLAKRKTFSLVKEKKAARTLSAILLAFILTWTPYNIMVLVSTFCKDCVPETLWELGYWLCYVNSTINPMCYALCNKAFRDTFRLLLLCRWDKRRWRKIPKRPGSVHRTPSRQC

[4] = system: U-937; assay: Toxicity in human U937 cells assessed as phospholipidosis first effect concentration by Nile red based fluorescence assay; type: cell-based
[5] = system: CHO; assay: Selectivity index, ratio of IC50 for 5HT2A receptor (unknown origin) to IC50 for human MCH receptor 1 expressed in CHO cell membranes; type: cell-based
[6] = system: CHO; assay: Selectivity index, ratio of IC50 for muscarinic M1 receptor (unknown origin) to IC50 for human MCH receptor 1 expressed in CHO cell membranes; type: cell-based
[7] = target: T2, hERG (KCNH2) (Homo sapiens, UniProt Q12809); assay: Inhibition of human ERG at 10 uM by patch clamp assay
T2 sequence (Q12809 whole entry): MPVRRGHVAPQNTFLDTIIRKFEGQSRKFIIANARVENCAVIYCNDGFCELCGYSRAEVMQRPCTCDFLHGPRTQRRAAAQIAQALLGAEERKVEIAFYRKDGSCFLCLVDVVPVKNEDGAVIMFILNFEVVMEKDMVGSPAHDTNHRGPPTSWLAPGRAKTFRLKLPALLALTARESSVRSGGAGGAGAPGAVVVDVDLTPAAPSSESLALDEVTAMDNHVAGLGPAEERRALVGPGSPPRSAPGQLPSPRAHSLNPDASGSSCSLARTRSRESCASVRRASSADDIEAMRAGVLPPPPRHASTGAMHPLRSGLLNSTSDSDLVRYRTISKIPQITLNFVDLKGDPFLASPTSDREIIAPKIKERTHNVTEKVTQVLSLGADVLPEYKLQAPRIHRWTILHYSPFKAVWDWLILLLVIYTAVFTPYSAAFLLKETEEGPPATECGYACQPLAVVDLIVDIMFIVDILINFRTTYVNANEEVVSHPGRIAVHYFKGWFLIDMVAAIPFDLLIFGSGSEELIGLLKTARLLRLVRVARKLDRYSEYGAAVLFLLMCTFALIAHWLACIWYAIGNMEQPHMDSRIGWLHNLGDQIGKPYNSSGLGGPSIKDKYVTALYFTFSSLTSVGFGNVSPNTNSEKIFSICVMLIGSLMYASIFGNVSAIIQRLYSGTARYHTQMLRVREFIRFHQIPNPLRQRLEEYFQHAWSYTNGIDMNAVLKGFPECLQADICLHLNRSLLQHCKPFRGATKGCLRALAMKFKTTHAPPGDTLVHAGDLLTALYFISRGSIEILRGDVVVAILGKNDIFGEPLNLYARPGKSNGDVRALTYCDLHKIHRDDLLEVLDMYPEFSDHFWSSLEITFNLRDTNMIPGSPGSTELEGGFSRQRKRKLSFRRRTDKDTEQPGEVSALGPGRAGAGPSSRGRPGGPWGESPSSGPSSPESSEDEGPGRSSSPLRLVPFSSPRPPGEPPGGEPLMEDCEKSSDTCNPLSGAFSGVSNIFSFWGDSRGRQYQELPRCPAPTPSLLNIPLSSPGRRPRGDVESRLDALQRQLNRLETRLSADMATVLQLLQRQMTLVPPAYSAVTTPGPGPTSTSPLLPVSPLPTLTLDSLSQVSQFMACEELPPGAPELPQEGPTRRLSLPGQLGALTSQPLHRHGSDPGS

[8] = Dissociation constant, pKa of the compound; type: physicochemical
[9] = target: T2, hERG (KCNH2); assay: Inhibition of human ERG at 1 uM by patch clamp assay
[10] = Tmax in Wistar rat at 10.9 umol/kg, po; type: ADME, organism-based; conditions: in vivo
[11] = Mean residence time in Wistar rat at 10.9 umol/kg, po; type: ADME, organism-based; conditions: in vivo
[12] = target: Voltage-gated inwardly rectifying potassium channel KCNH2 (Homo sapiens, UniProt Q12809); assay: Inhibition of human ERG by patch clamp assay
Voltage-gated inwardly rectifying potassium channel KCNH2, sequence (Q12809 whole entry): as above

[13] = system: Rattus norvegicus; assay: AUC in Wistar rat at 10.9 umol/kg, po; type: ADME, organism-based; conditions: in vivo
[14] = system: Rattus norvegicus; assay: Dose normalized Cmax in Wistar rat at 10.9 umol/kg, po; type: ADME, organism-based; conditions: in vivo
[15] = system: Rattus norvegicus; assay: Dose normalized Cmax in Wistar rat at 11.9 umol/kg, po; type: ADME, organism-based; conditions: in vivo
[16] = system: Rattus norvegicus; assay: AUC in Wistar rat at 11.9 umol/kg, po; type: ADME, organism-based; conditions: in vivo
[17] = Tmax in Wistar rat at 11.9 umol/kg, po; type: ADME, organism-based; conditions: in vivo
[18] = Mean residence time in Wistar rat at 11.9 umol/kg, po; type: ADME, organism-based; conditions: in vivo
[19] = Mean residence time in Wistar rat at 6.7 umol/kg, po; type: ADME, organism-based; conditions: in vivo
[20] = Tmax in Wistar rat at 6.7 umol/kg, po; type: ADME, organism-based; conditions: in vivo
[21] = system: Rattus norvegicus; assay: AUC in Wistar rat at 6.7 umol/kg, po; type: ADME, organism-based; conditions: in vivo
[22] = system: Rattus norvegicus; assay: Dose normalized Cmax in Wistar rat at 6.7 umol/kg, po; type: ADME, organism-based; conditions: in vivo

5-hydroxytryptamine receptor 2A, sequence (P28223 whole entry): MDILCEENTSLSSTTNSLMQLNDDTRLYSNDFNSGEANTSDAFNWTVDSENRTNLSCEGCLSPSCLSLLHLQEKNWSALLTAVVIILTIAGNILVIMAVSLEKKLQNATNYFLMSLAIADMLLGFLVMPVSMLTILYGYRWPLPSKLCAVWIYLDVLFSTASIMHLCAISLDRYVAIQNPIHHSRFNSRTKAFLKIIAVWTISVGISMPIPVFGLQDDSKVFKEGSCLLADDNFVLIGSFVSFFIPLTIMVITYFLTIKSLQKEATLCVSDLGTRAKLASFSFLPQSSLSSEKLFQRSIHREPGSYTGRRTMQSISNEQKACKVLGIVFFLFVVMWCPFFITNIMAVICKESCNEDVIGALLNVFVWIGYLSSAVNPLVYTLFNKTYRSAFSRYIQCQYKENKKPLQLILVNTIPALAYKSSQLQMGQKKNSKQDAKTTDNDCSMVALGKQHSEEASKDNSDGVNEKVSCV

SMILES	IC50 [1] [nM]	IC50 [2] [nM]	IC50 [3] [nM]	Activity [4] [µM]	inhibition at 1 µM [9] [%]	further results
CC(=O)NC1CCN(Cc2ccc(OCCCc3ccc(-c4ccc(F)cc4)nn3)cc2)CC1	713	15	4470	100		
O=C(CCc1ccc(-c2ccc(Cl)cc2)cc1)Nc1ccc(CN2CCCCC2)cc1	138	38	89			Ratio IC50 [5]: 4; Ratio IC50 [6]: 2
CN(CCCc1ccc(-c2ccc(Cl)cc2)cc1)c1ccc(CN2CCCCC2)cc1	646		419			
OC1CCN(Cc2ccc(NCCCc3ccc(Oc4ccccc4)nn3)cc2)CC1	> 10000	24	> 10000	50		inhibition at 10 µM [7]: 35%; pKa [8]: 9.1
COc1ccc(-c2ccc(CCCNc3ccc(CN4CCC(O)CC4)cc3)nn2)cc1	8820	20	> 10000	50	10	pKa [8]: 8.6
OC1CCN(Cc2ccc(OCCCc3ccc(-c4ccc(F)cc4)nn3)cc2)CC1	242	186	> 10000			
O=C(NCc1ccc(-c2ccc(Cl)cc2)cc1)Nc1ccc(CN2CCCCC2)cc1	29		511			
CN(C(=O)/C=C/c1ccc(-c2ccc(Cl)cc2)cc1)c1ccc(CN2CCCCC2)cc1	362	634	625			Ratio IC50 [5]: 1; Ratio IC50 [6]: 1
O=C(/C=C/c1ccc(-c2ccc(Cl)cc2)cc1)Nc1ccc(CN2CCCCC2)cc1	1930	16	401			Ratio IC50 [5]: 121; Ratio IC50 [6]: 25
COc1ccc(-c2ccc(CCCNc3ccc(CN4CCCCC4)cc3)nn2)cc1	1810	7	962	6.25		pKa [8]: 9
O=C(COc1ccc(-c2ccc(Cl)cc2)cc1)Nc1ccc(CN2CCCCC2)cc1	91	94	446			Ratio IC50 [5]: 1; Ratio IC50 [6]: 5
O=C(C#Cc1ccc(-c2ccc(Cl)cc2)cc1)Nc1ccc(CN2CCCCC2)cc1			225			
Clc1ccc(-c2ccc(CCCNc3ccc(CN4CCCCC4)cc3)cc2)cc1	680	3	325		76	Ratio IC50 [5]: 230; Ratio IC50 [6]: 110
Fc1ccc(-c2ccc(CCCNc3ccc(CN4CCCCC4)cc3)nn2)cc1	34		3740			
OCC1CCN(Cc2ccc(OCCCc3ccc(-c4ccc(Cl)cc4)nn3)cc2)CC1	790		1650	12.5		
CC(=O)NC1CCN(Cc2ccc(NCCCc3ccc(Oc4ccccc4)nn3)cc2)CC1	> 10000		> 10000	> 100		Tmax [10]: 2.8 h; MRT [11]: 6.4 h; IC50 [12]: > 10000 nM; AUC/dose [13]: 123 nM·h; Cmax/dose [14]: 24 nM
COc1ccc(-c2ccc(CCCNc3ccc(CN4CCCC4)cc3)nn2)cc1	4540	95	1860			
CC(=O)NC1CCN(Cc2ccc(OCCCc3ccc(Cc4ccccc4)nn3)cc2)CC1	> 10000		> 10000	100	13	
COc1ccc(-c2ccc(CCCNc3ccc(CN4CCCC(O)C4)cc3)nn2)cc1 (stereo not drawn)	> 10000		> 10000	25	10	
OCC1CCN(Cc2ccc(OCCCc3ccc(Oc4ccccc4)nn3)cc2)CC1	> 10000		2110	100	8	
COc1ccc(-c2ccc(CCCNc3ccc(CN(C)C)cc3)nn2)cc1	4580		1030			
N#Cc1ccc(-c2ccc(CCCNc3ccc(CN4CCCCC4)cc3)nn2)cc1	1460		1920			
Clc1ccc(-c2ccc(CCCNc3ccc(CN4CCCCC4)cc3)nn2)cc1	138	4	310	6.25	8	
O[C@@H]1CCCN(Cc2ccc(OCCCc3ccc(-c4ccc(Cl)cc4)nn3)cc2)C1	595	15	5470	6.25	13	
OC1CCN(Cc2ccc(NCCCc3ccc(OCc4ccccc4)nn3)cc2)CC1	> 10000	3	> 10000	50	4	
COc1ccc(-c2ccc(CCCNc3ccc(CN4CCC(NC(C)=O)CC4)cc3)nn2)cc1	> 10000	10	> 10000	100	7	Cmax/dose [15]: 83 nM; AUC/dose [16]: 476 nM·h; Tmax [17]: 1.5 h; pKa [8]: 8.8; MRT [18]: 4 h
CC(=O)NC1CCN(Cc2ccc(OCCCc3ccc(Oc4ccccc4)nn3)cc2)CC1	9650	10	> 10000	100		inhibition at 10 µM [7]: 13%; MRT [19]: 2.9 h; Tmax [20]: 0.8 h; AUC/dose [21]: 175 nM·h; Cmax/dose [22]: 531 nM
O[C@@H]1CCCN(Cc2ccc(OCCCc3ccc(Oc4ccccc4)nn3)cc2)C1	> 10000		> 10000			
OC1CCN(Cc2ccc(OCCCc3ccc(-c4ccc(Cl)cc4)nn3)cc2)CC1	1410		> 10000	25	38	
COc1ccc(-c2ccc(CCCNc3ccc(CN4CCOCC4)cc3)nn2)cc1	> 10000	20	> 10000	12.5	5	pKa [8]: 7.6
